Measurements as given in US10040790B2, “Bicyclic heterocycles as FGFR inhibitors” (Incyte Corporation, priority 2013, dated 2018).

Tests used:
Type in all cases: biochemical
FGFR1 = FGFR1 (Homo sapiens (Human), UniProt P11362); experiment: FGFR Enzymatic Assay (FRET peptide phosphorylation), FGFR1; conditions: ATP 210 μM, enzyme 0.02 nM
Protocol: (§1) The inhibitor potency of the exemplified compounds was measured in an enzyme assay that measures peptide phosphorylation using FRET measurements to detect product formation. Inhibitors were serially diluted in DMSO and a volume of 0.5 μL was transferred to the wells of a 384-well plate. For FGFR3, a 10 μL volume of FGFR3 enzyme (Millipore) diluted in assay buffer (50 mM HEPES, 10 mM MgCl2, 1 mM EGTA, 0.01% Tween-20, 5 mM DTT, pH 7.5) was added to the plate and pre-incubated for 5-10 minutes. Appropriate controls (enzyme blank and enzyme with no inhibitor) were included on the plate. The assay was initiated by the addition of a 10 μL solution containing biotinylated EQEDEPEGDYFEWLE peptide substrate (SEQ ID NO: 1) and ATP (final concentrations of 500 nM and 140 μM respectively) in assay buffer to the wells. The plate was incubated at 25° C. for 1 hr. The reactions were ended with the addition of 10 μL/well of quench solution (50 mM Tris, 150 mM NaCl, 0.5 mg/mL BSA, pH 7.8; 30 mM EDTA with Perkin Elmer Lance Reagents at 3.75 nM Eu-antibody PY20 and 180 nM APC-Streptavidin). The plate was allowed to equilibrate for ˜1 hr before scanning the wells on a PheraStar plate reader (BMG Labtech).
(§2) FGFR1 and FGFR2 were measured under equivalent conditions with the following changes in enzyme and ATP concentrations: FGFR1, 0.02 nM and 210 μM, respectively and FGFR2, 0.01 nM and 100 μM, respectively. The enzymes were purchased from Millipore or Invitrogen.
(§3) GraphPad prism3 was used to analyze the data. The IC50 values were derived by fitting the data to the equation for a sigmoidal dose-response with a variable slope. Y=Bottom+(Top−Bottom)/(1+10^((Log IC50−X)*HillSlope)) where X is the logarithm of concentration and Y is the response.

FGFR3 = FGFR3 (Homo sapiens (Human), UniProt P22607); experiment: FGFR Enzymatic Assay (FRET peptide phosphorylation), FGFR3; conditions: ATP 140 μM
Protocol: as §1, §3

FGFR2 = FGFR2 (Homo sapiens (Human), UniProt P21802); experiment: FGFR Enzymatic Assay (FRET peptide phosphorylation), FGFR2; conditions: ATP 100 μM, enzyme 0.01 nM
Protocol: as §1, §2, §3

Measured: IC50

Chain of FGFR2 (P21802 22-821): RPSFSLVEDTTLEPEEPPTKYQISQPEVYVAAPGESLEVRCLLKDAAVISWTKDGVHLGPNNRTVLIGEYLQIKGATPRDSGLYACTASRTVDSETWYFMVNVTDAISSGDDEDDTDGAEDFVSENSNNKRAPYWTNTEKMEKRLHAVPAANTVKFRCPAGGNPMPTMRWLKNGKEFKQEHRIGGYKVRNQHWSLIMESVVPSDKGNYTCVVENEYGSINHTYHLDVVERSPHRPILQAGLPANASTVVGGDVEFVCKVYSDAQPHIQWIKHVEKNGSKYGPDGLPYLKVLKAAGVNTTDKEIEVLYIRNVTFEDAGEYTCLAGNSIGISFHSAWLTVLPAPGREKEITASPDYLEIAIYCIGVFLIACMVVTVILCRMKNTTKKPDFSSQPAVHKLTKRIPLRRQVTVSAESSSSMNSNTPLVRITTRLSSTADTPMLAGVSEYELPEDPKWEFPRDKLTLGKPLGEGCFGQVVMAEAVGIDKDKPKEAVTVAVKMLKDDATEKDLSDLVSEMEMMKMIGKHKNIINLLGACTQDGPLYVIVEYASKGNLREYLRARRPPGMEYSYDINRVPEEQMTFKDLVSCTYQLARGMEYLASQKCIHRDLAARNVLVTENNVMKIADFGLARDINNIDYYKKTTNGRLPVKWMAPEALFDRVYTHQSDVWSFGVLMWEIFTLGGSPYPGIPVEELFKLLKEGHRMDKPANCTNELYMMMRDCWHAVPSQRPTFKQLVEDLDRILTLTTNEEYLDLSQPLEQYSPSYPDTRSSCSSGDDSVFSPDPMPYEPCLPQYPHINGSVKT
Chain of FGFR1 (P11362 22-822): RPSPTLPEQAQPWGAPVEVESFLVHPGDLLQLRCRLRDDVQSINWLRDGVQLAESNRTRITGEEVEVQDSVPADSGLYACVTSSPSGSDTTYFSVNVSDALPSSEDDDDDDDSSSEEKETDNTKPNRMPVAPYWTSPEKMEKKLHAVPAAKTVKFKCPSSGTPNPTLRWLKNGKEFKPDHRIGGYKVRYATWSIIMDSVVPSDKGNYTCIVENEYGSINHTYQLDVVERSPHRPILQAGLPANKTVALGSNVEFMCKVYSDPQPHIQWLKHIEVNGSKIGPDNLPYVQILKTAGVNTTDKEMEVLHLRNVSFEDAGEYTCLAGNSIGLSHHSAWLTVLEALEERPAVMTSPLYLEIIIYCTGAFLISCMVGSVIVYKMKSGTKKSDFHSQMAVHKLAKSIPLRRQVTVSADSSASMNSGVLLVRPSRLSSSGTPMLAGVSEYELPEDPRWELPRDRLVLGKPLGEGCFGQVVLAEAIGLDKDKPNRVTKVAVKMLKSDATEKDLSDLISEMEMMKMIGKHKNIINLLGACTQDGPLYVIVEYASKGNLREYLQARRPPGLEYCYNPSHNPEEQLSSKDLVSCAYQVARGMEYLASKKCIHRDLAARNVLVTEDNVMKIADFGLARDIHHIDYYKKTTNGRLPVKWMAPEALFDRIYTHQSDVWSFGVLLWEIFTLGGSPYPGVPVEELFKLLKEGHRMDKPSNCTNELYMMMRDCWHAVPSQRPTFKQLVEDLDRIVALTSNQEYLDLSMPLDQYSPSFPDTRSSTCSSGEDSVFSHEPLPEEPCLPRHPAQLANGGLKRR
Chain of FGFR3 (P22607 23-806): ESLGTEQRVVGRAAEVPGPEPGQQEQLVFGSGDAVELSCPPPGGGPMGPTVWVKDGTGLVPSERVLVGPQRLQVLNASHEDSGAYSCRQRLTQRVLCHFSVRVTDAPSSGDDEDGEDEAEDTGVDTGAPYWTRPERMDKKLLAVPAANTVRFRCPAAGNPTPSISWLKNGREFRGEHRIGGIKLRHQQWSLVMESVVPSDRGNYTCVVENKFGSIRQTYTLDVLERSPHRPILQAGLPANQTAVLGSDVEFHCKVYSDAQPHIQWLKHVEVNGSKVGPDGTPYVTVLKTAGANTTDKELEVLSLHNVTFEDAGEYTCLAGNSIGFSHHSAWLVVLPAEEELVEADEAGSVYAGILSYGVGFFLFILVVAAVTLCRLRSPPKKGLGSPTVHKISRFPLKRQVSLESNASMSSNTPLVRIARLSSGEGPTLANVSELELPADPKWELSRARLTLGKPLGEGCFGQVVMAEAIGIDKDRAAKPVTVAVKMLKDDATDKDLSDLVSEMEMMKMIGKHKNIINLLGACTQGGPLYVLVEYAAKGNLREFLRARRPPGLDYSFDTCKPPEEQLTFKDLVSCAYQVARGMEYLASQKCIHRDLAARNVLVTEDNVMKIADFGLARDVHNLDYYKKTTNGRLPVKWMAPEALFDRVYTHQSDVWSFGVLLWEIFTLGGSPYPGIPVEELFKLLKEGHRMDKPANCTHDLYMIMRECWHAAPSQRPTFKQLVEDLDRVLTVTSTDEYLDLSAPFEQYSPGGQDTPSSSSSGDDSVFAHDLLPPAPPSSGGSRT

COc1cc(OC)c(F)c(N2Cc3cnc(NC4CCC4)cc3C3(CC3)C2=O)c1F [Example 42, 6′-(cyclobutylamino)-2′-(2,6-difluoro-3,5-dimethoxyphenyl)-1′H-spiro[cyclopropane-1,4′-[2,7]naphthyridin]-3′(2′H)-one]
< 100 nM: all assays above

COC(=O)Nc1ncc2c(c1C)N(C)C(=O)N(c1c(F)c(OC)cc(OC)c1F)C2 [Example 48, methyl [3-(2,6-difluoro-3,5-dimethoxyphenyl)-1,8-dimethyl-2-oxo-1,2,3,4-tetrahydropyrido [4,3-d]pyrimidin-7-yl]carbamate]
< 100 nM: all assays above

COc1cc(OC)c(F)c(N2Cc3cnc(N)c(-c4cnn(CCO)c4)c3N(C)C2=O)c1F [Example 10, 7-amino-3-(2,6-difluoro-3,5-dimethoxyphenyl)-8-[1-(2-hydroxyethyl)-1H-pyrazol-4-yl]-1-methyl-3,4-dihydropyrido[4,3-d]pyrimidin-2(1H)-one]
< 100 nM: all assays above

COc1cc(OC)c(F)c(N2Cc3cnc(N[C@H]4CCOC4)cc3C3(CC3)C2=O)c1F [Example 29, (S)-2′-(2,6-difluoro-3,5-dimethoxyphenyl)-6′-(tetrahydrofuran-3-ylamino)-1′H-spiro[cyclopropane-1,4′-[2,7]naphthyridin]-3′(2′H)-one]
< 100 nM: all assays above

COc1cc(OC)c(F)c(N2Cc3cnc(N)c(C#N)c3N(c3ccccc3F)C2=O)c1F [Example 53, 7-amino-3-(2,6-difluoro-3,5-dimethoxyphenyl)-1-(2-fluorophenyl)-2-oxo-1,2,3,4-tetrahydropyrido[4,3-d]pyrimidine-8-carbonitrile]
< 100 nM: all assays above

COc1cc(OC)c(F)c(N2Cc3cnc(N)c(-c4cnn(C5CCNCC5)c4)c3N(C)C2=O)c1F [Example 11, 7-amino-3-(2,6-difluoro-3,5-dimethoxyphenyl)-1-methyl-8-(1-piperidin-4-yl-1H-pyrazol-4-yl)-3,4-dihydropyrido[4,3-d]pyrimidin-2(1H)-one]
< 100 nM: all assays above

COc1cc(OC)c(F)c(N2Cc3cnc(NC4CCCC4)cc3C3(CC3)C2=O)c1F [Example 34, 6′-(cyclopentylamino)-2′-(2,6-difluoro-3,5-dimethoxyphenyl)-1′H-spiro[cyclopropane-1,4′-[2,7]naphthyridin]-3′(2′H)-one]
< 100 nM: all assays above

CNc1cc2c(cn1)CN(c1c(F)c(OC)cc(OC)c1F)C(=O)C21CC1 [Example 25, 2′-(2,6-difluoro-3,5-dimethoxyphenyl)-6′-(methylamino)-1′,2′-dihydro-3′H-spiro[cyclopropane-1,4′-[2,7]naphthyridin]-3′-one]
< 100 nM: all assays above

COc1cc(OC)c(F)c(N2Cc3cnc(N)c(-c4cn[nH]c4)c3N(C)C2=O)c1F [Example 12, 7-amino-3-(2,6-difluoro-3,5-dimethoxyphenyl)-1-methyl-8-(1H-pyrazol-4-yl)-3,4-dihydro-pyrido[4,3-d]pyrimidin-2(1H)-one]
< 100 nM: all assays above

COc1cc(OC)c(F)c(N2Cc3cnc(N)c(-c4ccnn4C)c3N(C)C2=O)c1F [Example 13, 7-amino-3-(2,6-difluoro-3,5-dimethoxyphenyl)-1-methyl-8-(1-methyl-1H-pyrazol-5-yl)-3,4-dihydropyrido[4,3-d]pyrimidin-2(1H)-one]
< 100 nM: all assays above

COc1cc(OC)c(F)c(N2Cc3cnc(N)c(C)c3N(C)C2=O)c1F [Example 1, 7-amino-3-(2,6-difluoro-3,5-dimethoxyphenyl)-1,8-dimethyl-3,4-dihydropyrido[4,3-d]pyrimidin-2(1H)-one]
< 100 nM: all assays above

COc1cc(OC)c(F)c(N2Cc3cnc(N)c(C)c3N(c3nnn(C)n3)C2=O)c1F [Example 46, 7-amino-3-(2,6-difluoro-3,5-dimethoxyphenyl)-8-methyl-1-(2-methyl-2H-tetrazol-5-yl)-3,4-dihydropyrido[4,3-d]pyrimidin-2(1H)-one]
< 100 nM: all assays above
